For the first data set, the system named is EU-1. Briefly: WST cytotoxicity assay, cancer cell EU-1. The class given is cell-based, human. Conditions: EU-1; no other cell line named in the cell; read-out: Cancer cell (EU-1) cytotoxicity IC50. As to the method: This study used two ALL cell lines (EU-1 and EU-3) and three NB cell lines (NB-1643, SHEP1 and LA1-55N). All 5 cancer cell lines were established from pediatric ALL or NB patients and were well-characterized for their expression of MDM2 and p53-status, as reported previously. All cell lines were grown in standard culture medium (RPMI 1640 containing 10% FBS, 2 mmol/L L-glutamine, 50 U penicillin and 50 μg/mL streptomycin) at 37° C. in a humidified atmosphere containing 5% CO2.
The cytotoxic effect of MX 69 and MX69 analogs on cancer cells was determined using the water-soluble tetrazolium salt (WST) assay. Briefly, cells cultured in 96-well microtiter plates were treated with different concentrations of AQ-101 for a 20-h period. WST (25 μg/well) was then added and incubation continued for an additional 4 h, after which optical density (OD) was read with a microplate reader (test wavelength of 450 nm; reference wavelength of 620 nm).
In the case of `COC(=O)c1ccc([C@@H]2Nc3ccc(S(=O)(=O)Nc4ccc(C)c(C)c4)cc3[C@H]3OCC[C@H]32)cc1` [Compound 69L13], the IC50 (usually the concentration that inhibits the measured activity by half) lay within 6.4 to 9 µM.

Still in this data set, the particulars now being: Homo sapiens, EU-1, EU-1; no other cell line named in the cell; read-out: Cancer cell (EU-1) cytotoxicity IC50.
Consider `COC(=O)c1ccc(C2Nc3c(Cl)cc(S(=O)(=O)Nc4ccc(C)c(C)c4)cc3C3OCC[C@@H]23)cc1` (stereo partly shown) [Compound 69L33], for which the IC50 is greater than 50 µM.

Regarding `COC(=O)c1ccc([C@@H]2Nc3ccc(S(=O)(=O)Nc4ccc(C)c(C)c4)cc3[C@H]3c4ccccc4C[C@H]32)cc1` [Compound 69L3], the half-maximal inhibitory concentration (IC50) came out at 18.3 µM.

`Cc1ccc(N(C)S(=O)(=O)c2ccc3c(c2)[C@H]2OCC[C@H]2C(c2ccc(C(=O)C(C)C)cc2)N3C)cc1C` (stereo in doubt) [Compound 69L131, N-(3,4-dimethylphenyl)-4-(4-isobutyrylphenyl)-N,5-dimethyl-2,3,3a,4,5,9b-hexahydrofuro[3,2-c]quinoline-8-sulfonamide]: the concentration for half-maximal inhibition (IC50) is 1.16 µM.

For the compound `CC(=O)c1ccc([C@@H]2Nc3ccc(S(=O)(=O)Nc4ccc(C)c(C)c4)cc3C3NCC[C@H]32)cc1` (stereo partly shown) [Compound 69L50], the IC50 is 4.1 µM.

For `CC(C)C(=O)c1cccc(C2CC(=O)c3cc(S(=O)(=O)Nc4ccc(Cl)c(Cl)c4)ccc3N2)c1` (stereo not shown) [Compound 69L145], the IC50 was 3.5 µM.

Take `CCC(=O)c1cccc(NS(=O)(=O)c2ccc3c(c2)C2OCC[C@H]2C(c2ccc(C(=O)C(C)C)cc2)N3)c1` (stereo partly shown) [Compound 69L125, 4-(4-isobutyrylphenyl)-N-(3-propionylphenyl)-2,3,3a,4,5,9b-hexahydrofuro[3,2-c]quinoline-8-sulfonimide]: the IC50 was found to be 1.48 µM.

Turning to `CC(=O)c1ccc([C@H]2Nc3ccc(S(=O)(=O)Nc4ccc(C)c(C)c4)cc3C3NCC[C@H]32)cc1` (stereo partly shown) [Compound 69L49], the half-maximal inhibitory concentration (IC50) was 4.6 µM.

As to `Cc1ccc(NS(=O)(=O)c2ccc3c(c2)C2OCC[C@H]2C(c2ccc(C(=O)C(C)C)cc2)N3)cc1` (stereo in doubt) [Compound 69L85, 4-(4-isobutyrylphenyl)-N-(p-tolyl)-2,3,3a,4,5,9b-hexahydrofuro[3,2-c]quinoline-8-sulfonamide], the IC50 was 3.33 µM.

Regarding `CCc1cccc(NS(=O)(=O)c2ccc3c(c2)C(=O)CC(c2cccc(C(=O)C(C)C)c2)N3)c1` (stereo not shown) [Compound 69L150, N-(3-ethylphenyl)-2-(3-isobutyrylphenyl)-4-oxo-1,2,3,4-tetrahydroquinoline-6-sulfonamide], the IC50 was determined as 0.04 µM.

As for `CC(C)C(=O)c1ccc(C2Nc3ccc(S(=O)(=O)Nc4cccc(C(C)(C)C)c4)cc3[C@H]3OCC[C@@H]23)cc1` (stereo partly shown) [Compound 69L136], the IC50 came to 6.16 µM.

Regarding `CC(=O)c1cccc(NS(=O)(=O)c2ccc3c(c2)C2NCC[C@H]2C(c2ccc(C(=O)C(C)C)cc2)N3)c1` (stereo partly shown) [Compound 69L130], the half-maximal inhibitory concentration (IC50) was greater than 10 µM.

Take `CC(=O)N1CCC([C@@H]2Nc3ccc(S(=O)(=O)Nc4ccc(C)c(C)c4)cc3C3OCC[C@H]32)CC1` (stereo partly shown) [Compound 69L57, 4-(1-acetylpiperidin-4-yl)-N-(3,4-dimethylphenyl)-2,3,3a,4,5,9b-hexahydrofuran[3,2-c]quinolone-8-sulfonamine]: the IC50 was 10.8 µM.

With `CC(C)C(=O)c1ccc(C2Nc3ccc(S(=O)(=O)Nc4cccc5c4COC5=O)cc3[C@H]3OCC[C@@H]23)cc1` (stereo partly shown) [Compound 69L146], the concentration for half-maximal inhibition (IC50) is 3.81 µM.

On to `CC(=O)c1cccc(NS(=O)(=O)c2ccc3c(c2)[C@H]2OCC[C@H]2[C@H](C2CCCCC2)N3)c1` [Compound 69L144], for which the IC50 is 1.53 µM.

As for `Cc1ccc(NS(=O)(=O)c2ccc3c(c2)[C@H]2c4ccccc4C[C@H]2[C@H](c2ccc(C(=O)O)cc2)N3)cc1C` [Compound 69L6], the half-inhibitory concentration (IC50) came to 20.5 µM.

For the compound `COc1cccc(NS(=O)(=O)c2ccc3c(c2)C(=O)CC(c2cccc(C(=O)C(C)C)c2)N3)c1` (stereo not shown) [Compound 69L157, 2-(3-isobutyrylphenyl)-N-(3-methoxyphenyl)-4-oxo-1,2,3,4-tetrahydroquinoline-6-sulfonamide], the IC50 is 0.33 µM.

`Cc1ccc(NS(=O)(=O)c2ccc3c(c2)[C@H]2OCC[C@H]2C(c2ccc(C(=O)O)cc2)N3)cc1C` (stereo partly shown) [Compound 69L4]: the IC50 is greater than 50 µM.

For `CC(=O)c1cccc(C2CC(=O)c3cc(S(=O)(=O)Nc4ccc5c(c4)COC5)ccc3N2)c1` (stereo not shown) [Compound 69L124, 2-(3-acetylphenyl)-N-(1,3-dihydroisobenzofuran-5-yl)-4-oxo-1,2,3,4-tetrahydroquinoline-6-sulfonamide], the IC50 was 0.46 µM.

In the case of `Cc1ccc(NS(=O)(=O)c2ccc3c(c2)C2[C@@H](CCN2C(=O)OC(C)(C)C)C(c2ccc(S(C)(=O)=O)cc2)N3)cc1C` (stereo partly shown) [Compound 69L42], the 50% inhibitory concentration (IC50) is 19.9 µM.

Turning to `Cc1ccc(NS(=O)(=O)c2ccc3c(c2)C2OCC[C@H]2[C@@H](c2c[nH]c4ccccc24)N3)cc1C` (stereo partly shown) [Compound 69L36], the IC50 turned out to be 9.2 µM.

Turning to `CC(C)C(=O)c1cccc(C2CC(=O)c3cc(S(=O)(=O)Nc4cccc(C(C)C)c4)ccc3N2)c1` (stereo not shown) [Compound 69L139], the IC50 turned out to be 0.66 µM.

Take `COC(=O)c1ccc([C@@H]2Nc3cc(Cl)c(S(=O)(=O)Nc4ccc(C)c(C)c4)cc3[C@H]3OCC[C@H]32)cc1` [Compound 69L26]: the IC50 is greater than 50 µM.

As for `Cc1ccc(NS(=O)(=O)c2ccc3c(c2)[C@H]2OCC[C@H]2C(c2ccc(-n4ccccc4=O)cc2)N3)cc1C` (stereo partly shown) [Compound 69L15], the IC50 turned out to be 17.9 µM.

On to `CC(=O)Nc1ccc(C2Nc3ccc(S(=O)(=O)Nc4ccc(C)c(C)c4)cc3C3OCC[C@@H]23)cc1` (stereo partly shown) [Compound 69L51], for which the IC50 was determined as 4.5 µM.

Take `Cc1ccc(NS(=O)(=O)c2ccc3c(c2)C2CCC[C@H]2[C@H](c2ccc(C(=O)C(C)C)cc2)N3)cc1C` (stereo partly shown) [Compound 69L88]: the IC50 turned out to be 6.97 µM.

Regarding `CC(=O)c1cccc(NS(=O)(=O)c2ccc3c(c2)[C@H]2OCC[C@H]2C(c2ccc(C(C)C)cc2)N3)c1` (stereo partly shown) [Compound 69L115], the 50% inhibitory concentration (IC50) was found to be 0.56 µM.

As to `CCc1cccc(NS(=O)(=O)c2ccc3c(c2)C(=O)CC(c2cccc(C(=O)N(C)C)c2)N3)c1` (stereo not shown) [Compound 69L166], the IC50 was 0.11 µM.

As for `COc1cc(NS(=O)(=O)c2ccc3c(c2)C(=O)CC(c2cccc(C(=O)N(C)C)c2)N3)ccc1C` (stereo not shown) [Compound 69L161], the half-inhibitory concentration (IC50) is 0.82 µM.

For `COC(=O)c1ccc([C@@]2(N)C[C@H](c3ccc(Cl)cc3)c3cc(S(=O)(=O)Nc4ccc(C)c(C)c4)ccc3N2)cc1` [Compound 69L14], the IC50 was greater than 50 µM.

For `Cc1ccc(N(C)S(=O)(=O)c2ccc3c(c2)[C@H]2OCC[C@H]2[C@@H](c2ccc(C(=O)C(C)C)cc2)N3)cc1C` (stereo in doubt) [Compound 69L132, N-(3,4-dimethylphenyl)-4-(4-isobutyrylphenyl)-N-methyl-2,3,3a,4,5,9b-hexahydrofuro[3,2-c]quinoline-8-sulfonamide], the half-inhibitory concentration (IC50) amounted to 1.57 µM.

In the case of `COC(=O)c1ccc([C@@H]2Nc3ccc(S(=O)(=O)Nc4ccc(C)c(C)c4)cc3[C@@H]3OCC[C@H]23)cc1` [Compound 69L29], the IC50 was in the range of 2 to 2.7 µM.

Take `CC(=O)c1cccc(NS(=O)(=O)c2ccc3c(c2)C2NCC[C@H]2[C@@H](c2ccc(C(=O)C(C)C)cc2)N3)c1` (stereo partly drawn) [69L130 trans]: the concentration for half-maximal inhibition (IC50) is greater than 10 µM.

For `CC(C)C(=O)c1ccc(C2Nc3ccc(S(=O)(=O)Nc4ccc5c(c4)OCO5)cc3[C@H]3OCC[C@@H]23)cc1` (stereo partly shown) [Compound 69L142], the concentration for half-maximal inhibition (IC50) was greater than 5 µM.

For the compound `CC(C)c1cccc(NS(=O)(=O)c2ccc3c(c2)C(=O)CC(c2cccc(C(C)C)c2)N3)c1` (stereo not shown) [Compound 69L137], the IC50 came out at 5 µM.

For `CCOC1C[C@@H](c2ccc(C(C)=O)cc2)Nc2ccc(S(=O)(=O)Nc3ccc(C)c(C)c3)cc21` (stereo partly shown) [Compound 69L46], the half-inhibitory concentration (IC50) was 6.5 µM.

Consider `Cc1cc(NS(=O)(=O)c2ccc3c(c2)C2OCC[C@H]2C(c2ccc(C(=O)C(C)C)cc2)N3)ccc1C(F)(F)F` (stereo partly shown) [Compound 69L89], for which the IC50 stood at 7.2 µM.

In the case of `Cc1ccc(NS(=O)(=O)c2ccc3c(c2)[C@H]2OCC[C@H]2C(c2ccc(B(O)O)cc2)N3)cc1C` (stereo partly shown) [Compound 69L18], the concentration for half-maximal inhibition (IC50) stood at 14.7 µM.

With `Cc1ccc(NS(=O)(=O)c2ccc3c(c2)[C@H]2NCC[C@H]2[C@H](c2ccc(C(=O)C(C)C)cc2)N3)cc1C` [Compound 69L82], the IC50 was 29.7 µM.

For `CC(C)C(=O)c1ccc(C2Nc3ccc(S(=O)(=O)Nc4ccc(Cl)c(Cl)c4)cc3[C@H]3OCC[C@@H]23)cc1` (stereo partly shown) [Compound 69L76], the IC50 came out at 5.59 µM.

As to `CCc1cccc(NS(=O)(=O)c2ccc3c(c2)[C@H]2OCC[C@H]2C(c2ccc(C(=O)C(C)C)cc2)N3)c1` (stereo partly shown) [Compound 69L148], the IC50 worked out at 2.05 µM.

With `CC(=O)c1ccc(C2Nc3ccc(S(=O)(=O)Nc4cccc(C(C)=O)c4)cc3[C@H]3OCC[C@@H]23)cc1` (stereo partly shown) [Compound 69L110], the IC50 was found to be 0.27 µM.

Take `CC(C)C(=O)c1ccc(C2Nc3ccc(S(=O)(=O)Nc4ccc(Br)c(Br)c4)cc3[C@H]3OCC[C@@H]23)cc1` (stereo partly shown) [Compound 69L74]: the IC50 turned out to be 5.23 µM.

Turning to `CCC(=O)c1cccc(NS(=O)(=O)c2ccc3c(c2)C(=O)CC(c2cccc(C(C)=O)c2)N3)c1` (stereo not shown) [Compound 69L126, 2-(3-acetylphenyl)-4-oxo-N-(3-propionylphenyl)-1,2,3,4-tetrahydro-quinoline-6-sulfonamide], the 50% inhibitory concentration (IC50) was determined as 1.14 µM.

With `Cc1ccc(NS(=O)(=O)c2ccc3c(c2)C2NCC[C@H]2[C@H](c2ccc(S(C)(=O)=O)cc2)N3)cc1C` (stereo partly shown) [Compound 69L44], the 50% inhibitory concentration (IC50) worked out at 44.9 µM.

For the compound `CC(C)C(=O)c1ccc(C2Nc3ccc(S(=O)(=O)Nc4cccc(N(C)C)c4)cc3[C@H]3OCC[C@@H]23)cc1` (stereo partly shown) [Compound 69L141], the half-maximal inhibitory concentration (IC50) was 7.5 µM.

The values above are taken from patent US20240059658A1 (Emory University, priority 2019, published 2024).
